In patent US4387098A, “Imidazo[1,2-a]quinoline derivatives useful as anxiolytics” (Roussel Uclaf, priority 1981, dated 1983) one finds IC50 and minimal effective dose data, which are given here for 30 compounds.

One experiment has as its target benzodiazepine receptor. The experiment can be described thus: benzodiazepine receptor affinity, [^3 H] flunitrazepam radio receptor binding (modified Squires and Braestrup) on rat forebrain membrane preparations. To be noted: 0.6 nM [^3 H] flunitrazepam, read-out: IC50, inhibition of the specific binding of [^3 H] flunitrazepam by 50%. How it is done: A. The affinity of the compounds for the benzodiazepine receptor was assessed using the radioligand [^3 H] flunitrazepam and modifications of the original radio receptor binding method of Squires and Braestrup (Nature, 1977, Vol. 266, p. 732). The values of Table V are nanomolar concentrations of test compound which inhibited the specific binding of 0.6 nM[^3 H] flunitrazepam to rat forebrain membrane preparations by 50% (IC50 nM).
The term IC50 denotes the point on the concentration scale where inhibition reaches its midpoint. For `CCc1ccc2c(c1)c(OC)cc1nc(C(=O)c3ccccc3)cn12` [Example 1], the IC50 worked out at 14 nM.
For `CSc1cc2nc(C(=O)c3ccccc3)cn2c2ccccc12` [Example 2, (5-methylthio-imidazo[1,2-a]quinolin-2-yl)-phenyl-methanone], the IC50 is 500 nM.
The same measure, in the same setting: the value for `COc1ccc2c(OC)cc3nc(C(=O)c4ccccc4)cn3c2c1` [Example 3] was 5000 nM; that for `COc1cc2nc(C(=O)c3ccccc3)cn2c2ccccc12` [Example 4, (5-methoxy-imidazo[1,2-a]quinolin-2-yl)-phenyl-methanone] was 27 nM.
Same read-out and setting: the value for `CCc1ccc2c(c1)c(OC)cc1nc(C(C)=O)cn12` [Example 6] was 1300 nM; that for `COc1cc2nc(C(=O)c3ccccc3)cn2c2ccc(Cl)cc12` [Example 7] was 600 nM.
Regarding `CC(C)Oc1cc2nc(C(=O)c3ccccc3)cn2c2ccccc12` [Example 8, (5-isopropoxy-imidazo[1,2-a]quinolin-2-yl)-phenyl-methanone], the IC50 was determined as 470 nM.
Same read-out and setting: the value for `CCOc1cc2nc(C(=O)c3ccccc3)cn2c2ccccc12` [Example 9] was 540 nM; that for `CCCCOc1cc2nc(C(=O)c3ccccc3)cn2c2ccccc12` [Example 10] was 1000 nM.
Still for that read-out and setting: the value for `CCc1ccc(C(=O)c2cn3c(cc(OC)c4ccccc43)n2)cc1` [Example 11, (4-ethyl-phenyl)(5-methoxy-imidazo[1,2-a]quinolin-2-yl)-methanone] was 67 nM.
Same read-out and setting: the value for `CCCOc1cc2nc(C(=O)c3ccccc3)cn2c2ccccc12` [Example 12] was 1000 nM.
Turning to `COc1cc2nc(C(=O)c3ccccc3)cn2c2ccc(C)cc12` [Example 13], the IC50 was determined as 21 nM.
Still for that read-out and setting: the value for `COc1ccc2c(c1)c(OC)cc1nc(C(=O)c3ccccc3)cn12` [Example 14] was 51 nM; that for `COc1cc2nc(C(=O)c3ccccc3)cn2c2ccc(C(C)C)cc12` [Example 15] was 25 nM; that for `CCCCc1ccc2c(c1)c(OC)cc1nc(C(=O)c3ccccc3)cn12` [Example 16] was 57 nM.
Still for that read-out and setting: the figure for `COc1cc2nc(C(=O)c3ccc(C)cc3)cn2c2ccccc12` [Example 17] is 19 nM; for `COc1ccc(C(=O)c2cn3c(cc(OC)c4ccccc43)n2)cc1` [Example 18] it is 37 nM.
Same read-out and setting: the figure for `COc1cc2nc(C(=O)c3ccccc3)cn2c2c(OC)cccc12` [Example 19] is 630 nM; for `COc1cc2nc(C(=O)c3ccc(Cl)cc3)cn2c2ccccc12` [Example 20] it is 96 nM.
`COc1cc2nc(C(=O)c3cccs3)cn2c2ccccc12` [Example 21]: the IC50 stood at 24 nM.
The same measure, in the same setting: the figure for `COc1cc2nc(C(=O)c3ccccc3)cn2c2cc(Cl)ccc12` [Example 22] is 340 nM.
In the case of `COc1cc2nc(C(=O)c3ccccc3)cn2c2c(Cl)cccc12` [Example 23], the IC50 was determined as 132 nM.
Consider `COc1cc2nc(C(=O)c3ccccc3)cn2c2cc(C)ccc12` [Example 24], for which the IC50 was determined as 290 nM.
Still for that read-out and setting: the figure for `COc1cc2nc(C(=O)c3ccccc3)cn2c2cccc(C)c12` [Example 25] is 11 nM; for `COc1cc2nc(C(=O)c3ccccc3)cn2c2ccc(C3CCCCC3)cc12` [Example 26] it is 10000 nM; for `COc1cc2nc(C(=O)c3ccccc3)cn2c2ccc(Oc3ccccc3)cc12` [Example 27] it is 210 nM.
Consider `CCc1ccc2c(c1)c(OC)cc1nc(C(=O)c3ccc(OC)cc3)cn12` [Example 28], for which the IC50 worked out at 30 nM.
For the compound `CCc1ccc(C(=O)c2cn3c(cc(OC)c4cc(CC)ccc43)n2)cc1` [Example 29], the IC50 is 51 nM.
For the compound `CCc1ccc2c(c1)c(OC)cc1nc(C(=O)c3ccccn3)cn12` [Example 30], the IC50 stood at 92 nM.
Still for that read-out and setting: the figure for `COc1cc2nc(C(=O)c3ccccc3)cn2c2ccc(F)cc12` [Example 31] is 74 nM.

System in a further experiment: not listed separately
As to the kind of experiment: anxiolytic activity, one-day lick shock method of Vogel et al. In kind it is in vivo. To be noted: po, 24 h, orally, read-out: minimum effective dose (MED) at which there was an observed increase in shocks above control. How it is done:
B. Screening for anxiolytic activity was carried out by the one-day lick shock method of Vogel et al [Psychopharmacologia, 1971 Vol. 21, p. 1]. The values of Table VI are the minimum effective doses (MED) in mg/kg orally at which there was an observed increase in shocks above control.
For `CCc1ccc2c(c1)c(OC)cc1nc(C(=O)c3ccccc3)cn12` [Example 1], the minimal effective dose worked out at 20 mg/kg.
On the same count and under the same terms, the figure for `COc1cc2nc(C(=O)c3ccccc3)cn2c2ccccc12` [Example 4, (5-methoxy-imidazo[1,2-a]quinolin-2-yl)-phenyl-methanone] is 25 mg/kg; for `CCc1ccc2c(c1)c(OC)cc1nc(C(C)=O)cn12` [Example 6] it is 20 mg/kg.
Still for that read-out and setting: the figure for `COc1cc2nc(C(=O)c3ccccc3)cn2c2ccc(C)cc12` [Example 13] is 25 mg/kg.
Still for that read-out and setting: the figure for `COc1cc2nc(C(=O)c3ccccc3)cn2c2ccc(C(C)C)cc12` [Example 15] is 10 mg/kg; for `CCCCc1ccc2c(c1)c(OC)cc1nc(C(=O)c3ccccc3)cn12` [Example 16] it is 25 mg/kg.
